Test results taken from ChEMBL document CHEMBL2021833, “Calcitonin gene-related peptide (CGRP) receptor antagonists: pyridine as a replacement for a core amide group” (Bioorg Med Chem Lett, 2012).

What was measured:
Liver microsomes [1] = assay: Metabolic stability in human liver microsomes; assay type: ADME, Microsome
[2] = biological target: T1, Calcitonin gene-related peptide type 1 receptor (Homo sapiens, UniProt O60894+Q16602); assay: Displacement of [I125]CGRP from CGRP receptor in human SK-N-MC cell membrane after 2 hrs by gamma or scintillation counting; assay type: cell membranes
T1 sequence (Q16602 whole entry, one chain of several): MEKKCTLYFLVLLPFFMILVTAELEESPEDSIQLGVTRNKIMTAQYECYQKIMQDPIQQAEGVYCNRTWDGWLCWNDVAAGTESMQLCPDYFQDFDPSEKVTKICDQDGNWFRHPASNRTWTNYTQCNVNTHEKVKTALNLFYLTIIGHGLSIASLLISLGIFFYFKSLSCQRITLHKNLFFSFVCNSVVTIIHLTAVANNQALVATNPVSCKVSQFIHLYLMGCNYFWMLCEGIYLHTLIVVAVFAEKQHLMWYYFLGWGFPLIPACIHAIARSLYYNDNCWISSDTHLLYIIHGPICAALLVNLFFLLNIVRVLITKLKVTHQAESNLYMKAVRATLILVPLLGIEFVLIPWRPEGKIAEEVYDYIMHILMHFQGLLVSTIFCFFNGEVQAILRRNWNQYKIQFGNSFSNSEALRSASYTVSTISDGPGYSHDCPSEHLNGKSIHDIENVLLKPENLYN

Liver microsomes [3] = assay: Metabolic stability in rat liver microsomes; assay type: ADME, Microsome
[4] = biological target: T1, Calcitonin gene-related peptide type 1 receptor; assay: Antagonist activity at CGRP receptor in human SK-N-MC cells assessed as inhibition of CGRP-stimulated cAMP production; assay type: functional, cell-based
[5] = Permeability across human Caco2 cells; assay type: ADME, cell-based; settings: Caco-2, read-out: permeability
Plasma = assay: Fraction unbound in po dosed rat plasma; assay type: ADME, organism-based; settings: in vivo
[6] = biological target: T1, Calcitonin gene-related peptide type 1 receptor; assay: Antagonist activity at CGRP receptor in human SK-N-MC cells assessed as inhibition of CGRP-stimulated cAMP production in presence of plasma; assay type: functional, cell-based
[7] = Oral bioavailability in rat; assay type: ADME, organism-based; settings: in vivo

Row | Compound | Stability (Liver microsomes [1]) | IC50 [2] | Stability (Liver microsomes [3]) | IC50 [4] | further results
1 | Cc1cc(CC(OC(=O)N2CCC(N3Cc4ccccc4NC3=O)CC2)c2cc(C(=O)O)ccn2)cc2cn[nH]c12 (stereo unspecified) | Unstable | 30 nM | Unstable | 28 nM | –
2 | COC(=O)c1ccnc(C(Cc2cc(C)c3[nH]ncc3c2)OC(=O)N2CCC(N3Cc4ccccc4NC3=O)CC2)c1 (stereo unspecified) | Unstable | 4.4 nM | Unstable | – | –
3 | Cc1cc(CC(OC(=O)N2CCC(N3Cc4ccccc4NC3=O)CC2)c2cc(C#N)ccn2)cc2cn[nH]c12 (stereo unspecified) | Unstable | 3 nM | Unstable | – | –
4 | Cc1cc(CC(OC(=O)N2CCC(c3cc4ccccc4[nH]c3=O)CC2)c2ccccn2)cc2cn[nH]c12 (stereo unspecified) | Unstable | 12 nM | Unstable | – | –
5 | Cc1cc(CC(OC(=O)N2CCC(N3Cc4ccccc4NC3=O)CC2)c2ccccn2)cc2c(CN3CCCCC3)n[nH]c12 (stereo unspecified) | – | 6.6 nM | – | – | –
6 | Cc1cc(CC(OC(=O)N2CCC(N3Cc4ccccc4NC3=O)CC2)c2ccccn2)cc2c(CN3CCCC3)n[nH]c12 (stereo unspecified) | – | 6.8 nM | – | – | –
7 | Cc1cc(CC(CC(=O)N2CCC(N3Cc4ccccc4NC3=O)CC2)c2ccccn2)cc2cn[nH]c12 (stereo unspecified) | – | 8.6 nM | – | 8.7 nM | Papp [5]: 12 ×10⁻⁶ cm/s; bioavailability [7]: 3%
8 | Cc1cc(CC(CC(=O)N2CCC(N3Cc4cccc(F)c4NC3=O)CC2)c2ccccn2)cc2cn[nH]c12 (stereo unspecified) | – | 35 nM | – | 20 nM | Papp [5]: 21 ×10⁻⁶ cm/s; bioavailability [7]: 3%
9 | CCc1ccnc(C(CC(=O)N2CCC(N3Cc4ccccc4NC3=O)CC2)Cc2cc(C)c3[nH]ncc3c2)c1 (stereo unspecified) | – | 10 nM | – | 13 nM | Papp [5]: 14 ×10⁻⁶ cm/s; bioavailability [7]: 2%
10 | Cc1cccnc1C(CC(=O)N1CCC(N2Cc3ccccc3NC2=O)CC1)Cc1cc(C)c2[nH]ncc2c1 (stereo unspecified) | – | 4.4 nM | – | 8.2 nM | –
11 | Cc1ccc(C(CC(=O)N2CCC(N3Cc4ccccc4NC3=O)CC2)Cc2cc(C)c3[nH]ncc3c2)nc1 (stereo unspecified) | – | 12 nM | – | 18 nM | Papp [5]: 6.4 ×10⁻⁶ cm/s; bioavailability [7]: 1%
12 | Cc1cc(CC(CC(=O)N2CCC(N3Cc4ccccc4NC3=O)CC2)c2ccc(CO)cn2)cc2cn[nH]c12 (stereo unspecified) | – | 7.9 nM | – | 6 nM | –
13 | Cc1cc(CC(CC(=O)N2CCC(c3cc4ccccc4[nH]c3=O)CC2)c2ccccn2)cc2cn[nH]c12 (stereo unspecified) | – | 24 nM | – | 30 nM | Papp [5]: 3.4 ×10⁻⁶ cm/s
14 | Cc1cc(CC(NC(=O)N2CCC(N3Cc4ccccc4NC3=O)CC2)c2ccccn2)cc2cn[nH]c12 (stereo unspecified) | – | 3.1 nM | – | 4.1 nM | –
15 | Cc1cc(CC(NC(=O)N2CCC(N3Cc4ccccc4NC3=O)CC2)c2ccc3ccccc3n2)cc2cn[nH]c12 (stereo unspecified) | – | 2 nM | – | 1.4 nM | –
16 | Cc1cc(CC(NC(=O)N2CCC(N3Cc4ccccc4NC3=O)CC2)c2cccc(-c3ccccc3)n2)cc2cn[nH]c12 (stereo unspecified) | – | 12 nM | – | 14 nM | –
17 | Cc1cccc(C(Cc2cc(C)c3[nH]ncc3c2)NC(=O)N2CCC(N3Cc4ccccc4NC3=O)CC2)n1 (stereo unspecified) | – | 3.8 nM | – | 3.4 nM | –
18 | Cc1cc(CC(OC(=O)N2CCC(N3Cc4ccccc4NC3=O)CC2)c2cc(CO)ccn2)cc2cn[nH]c12 (stereo unspecified) | Unstable | 2 nM | Unstable | 2.1 nM | –
19 | Cc1cc(C[C@@H](NC(=O)N2CCC(N3Cc4cccc(F)c4NC3=O)CC2)C(=O)N2CCC(N3CCCCC3)CC2)cc2cn[nH]c12 | – | – | – | – | Ki [2]: 0.013 nM

Further compounds by falling IC50 [2], results first:

Row | Stability (Liver microsomes [1]) | IC50 [2] | Stability (Liver microsomes [3]) | IC50 [4] | Compound | further results
20 | – | 1.9 nM | – | – | Cc1cc(CC(OC(=O)N2CCC(N3Cc4ccccc4NC3=O)CC2)c2ccccn2)cc2c(CN3CCOCC3)n[nH]c12 (stereo unspecified) | –
21 | – | 1.8 nM | – | 1.3 nM | Cc1cc(CC(CC(=O)N2CCC(N3Cc4ccccc4NC3=O)CC2)c2ccc(CN3CCCCC3)cn2)cc2cn[nH]c12 (stereo unspecified) | Papp [5]: < 1.5 ×10⁻⁶ cm/s
22 | Unstable | 1.5 nM | Unstable | 1.9 nM | Cc1cc(CC(OC(=O)N2CCC(N3Cc4ccccc4NC3=O)CC2)c2ccccn2)cc2cn[nH]c12 (stereo unspecified) | –
23 | Unstable | 1.4 nM | Unstable | 4.8 nM | Cc1cc(CC(OC(=O)N2CCC(N3Cc4ccccc4NC3=O)CC2)c2ccc3ccccc3n2)cc2cn[nH]c12 (stereo unspecified) | –
24 | – | 1.3 nM | – | – | Cc1cc(CC(OC(=O)N2CCC(N3Cc4ccccc4NC3=O)CC2)c2ccccn2)cc2c(C=O)n[nH]c12 (stereo unspecified) | –
25 | Unstable | 1.2 nM | Unstable | – | Cc1cc(CC(OC(=O)N2CCC(c3cc4ccccc4[nH]c3=O)CC2)c2cc(CN3CCOCC3)ccn2)cc2cn[nH]c12 (stereo unspecified) | Papp [5]: 9.9 ×10⁻⁶ cm/s
26 | – | 1.1 nM | – | 0.94 nM | Cc1cc(CC(CC(=O)N2CCC(N3Cc4ccccc4NC3=O)CC2)c2ccc(C=O)cn2)cc2cn[nH]c12 (stereo unspecified) | –
27 | – | 0.82 nM | – | 1 nM | Cc1cc(CC(NC(=O)N2CCC(N3Cc4ccccc4NC3=O)CC2)c2cc3ccccc3cn2)cc2cn[nH]c12 (stereo unspecified) | –
28 | – | 0.49 nM | – | 0.82 nM | Cc1cc(CC(NC(=O)N2CCC(N3Cc4ccccc4NC3=O)CC2)c2cccc(Br)n2)cc2cn[nH]c12 (stereo unspecified) | –
29 | Unstable | 0.46 nM | Unstable | 0.63 nM | Cc1cc(CC(OC(=O)N2CCC(N3Cc4ccccc4NC3=O)CC2)c2cc3ccccc3cn2)cc2cn[nH]c12 (stereo unspecified) | –
30 | – | 0.39 nM | – | – | Cc1cc(CC(OC(=O)N2CCC(N3Cc4ccccc4NC3=O)CC2)c2ccccn2)cc2c(Cl)n[nH]c12 (stereo unspecified) | –
31 | Unstable | 0.38 nM | Unstable | 0.46 nM | Cc1cc(CC(OC(=O)N2CCC(N3Cc4ccccc4NC3=O)CC2)c2cccc(Br)n2)cc2cn[nH]c12 (stereo unspecified) | –
32 | Unstable | 0.33 nM | Unstable | – | Cc1cc(CC(OC(=O)N2CCC(N3Cc4ccccc4NC3=O)CC2)c2cc(C(=O)N(C)C)ccn2)cc2cn[nH]c12 (stereo unspecified) | –
33 | – | 0.33 nM | – | – | Cc1cc(CC(OC(=O)N2CCC(N3Cc4ccccc4NC3=O)CC2)c2ccccn2)cc2c(Br)n[nH]c12 (stereo unspecified) | –
34 | Unstable | 0.28 nM | Unstable | 0.099 nM | Cc1cc(CC(OC(=O)N2CCC(N3Cc4ccccc4NC3=O)CC2)c2cc(C(=O)N3CCCCC3)ccn2)cc2cn[nH]c12 (stereo unspecified) | –
35 | – | 0.28 nM | – | 0.34 nM | Cc1cc(CC(OC(=O)N2CCC(c3cc4ccccc4[nH]c3=O)CC2)c2cc(C(=O)N(C)C)cc(Cl)n2)cc2cn[nH]c12 (stereo unspecified) | Cp(f) (Plasma): 6%; Papp [5]: 5.2 ×10⁻⁶ cm/s; Ki [6]: 3.3 nM; bioavailability [7]: 4.5%
36 | Unstable | 0.27 nM | Unstable | – | Cc1cc(CC(OC(=O)N2CCC(N3Cc4ccccc4NC3=O)CC2)c2cc(-c3ccncc3)ccn2)cc2cn[nH]c12 (stereo unspecified) | –
37 | Unstable | 0.24 nM | Unstable | – | Cc1cc(CC(OC(=O)N2CCC(c3cc4ccccc4[nH]c3=O)CC2)c2cc(CN3CCCC3)ccn2)cc2cn[nH]c12 (stereo unspecified) | Papp [5]: 4.9 ×10⁻⁶ cm/s
38 | – | 0.24 nM | – | – | Cc1cc(CC(OC(=O)N2CCC(N3Cc4ccccc4NC3=O)CC2)c2ccccn2)cc2c(-c3ccccc3)n[nH]c12 (stereo unspecified) | –
39 | Unstable | 0.21 nM | Unstable | 0.28 nM | Cc1cc(CC(OC(=O)N2CCC(N3Cc4ccccc4NC3=O)CC2)c2cc(C=O)ccn2)cc2cn[nH]c12 (stereo unspecified) | –
40 | Unstable | 0.16 nM | Unstable | 0.1 nM | Cc1cc(CC(OC(=O)N2CCC(c3cc4ccccc4[nH]c3=O)CC2)c2cc(CN3CCCCC3)ccn2)cc2cn[nH]c12 (stereo unspecified) | Papp [5]: 8.5 ×10⁻⁶ cm/s
41 | Unstable | 0.1 nM | Unstable | 0.02 nM | Cc1cc(CC(OC(=O)N2CCC(N3Cc4ccccc4NC3=O)CC2)c2cc(CN3CCCCC3)ccn2)cc2cn[nH]c12 (stereo unspecified) | –
42 | Unstable | 0.095 nM | Unstable | 0.042 nM | Cc1cc(CC(OC(=O)N2CCC(c3cc4ccccc4[nH]c3=O)CC2)c2cc(CN3CCCCCC3)ccn2)cc2cn[nH]c12 (stereo unspecified) | Papp [5]: 2.8 ×10⁻⁶ cm/s
43 | – | 0.093 nM | – | – | Cc1cc(CC(OC(=O)N2CCC(N3CCc4ccccc4NC3=O)CC2)c2cc(C(=O)N(C)C)cc(Cl)n2)cc2cn[nH]c12 (stereo unspecified) | Papp [5]: < 1.5 ×10⁻⁶ cm/s
44 | – | 0.077 nM | – | 0.064 nM | Cc1cc(C[C@@H](OC(=O)N2CCC(c3cc4ccccc4[nH]c3=O)CC2)c2cc(C(=O)N(C)C)cc(Cl)n2)cc2cn[nH]c12 | –
45 | – | 0.071 nM | – | – | Cc1cc(CC(OC(=O)N2CCC(n3c(=O)[nH]c4ncccc43)CC2)c2cc(C(=O)N(C)C)cc(Cl)n2)cc2cn[nH]c12 (stereo unspecified) | Cp(f) (Plasma): 21%; Papp [5]: 1.6 ×10⁻⁶ cm/s; Ki [6]: 0.18 nM
